Experimental data: EP1949908A1, “Combined use of derivatives of GLP-1 analogs and PPAR ligands” (NOVO NORDISK A/S, priority 2001, dated 2002)

Test system: male ZDF rat
Test: Four weeks treatment of overtly diabetic male ZDF rats: HbA1c and 24-hour glucose profile
Assay type: in vivo
Settings: mean±SEM, n=10, propionic acid compound 1 mg/kg oral gavage once daily, GLP-1 derivative 50 µg/kg subcutaneously twice daily
Protocol: Ninety male ZDF rats aged 15-16 weeks were used in the study. Before treatment start, measurements of glucose and HbA1c were performed. All animals were overtly diabetic at the beginning of the study. Animals were allocated into the following 4 treatment groups:
(-)-2-Ethoxy-3-(4-(2-phenoxazin-10-yl-ethoxy)-phenyl)-propionic acid and Vehicle-1 were administered by oral gavage once daily at approx. 07:30. Arg^34, Lys^26(N^ε-(γ-Glu(N^α-hexadecanoyl)))-GLP-1 (7-37) and Vehicle-2 were administered subcutaneously twice daily at approx. 07:30 and 14:30.
After four weeks treatment, HbA1c was measured and 24-hour glucose profiles were assessed.
Delta HbA1c refers to the numerical difference between the measurement after treatment and the measurement before treatment. Glucose24hAUC refers to the total area under the glucose concentration curve during the 24-hour period. A two-way analysis of variance was performed for each parameter and the significance of the interaction term evaluated.

CCOC(Cc1ccc(OCCN2c3ccccc3Oc3ccccc32)cc1)C(=O)O (single isomer, unassigned; (-)) [(-)-2-ethoxy-3-(4-(2-phenoxazin-10-yl-ethoxy)-phenyl)-propionic acid]
Delta HbA1c (after four weeks treatment minus before treatment): -0.81±0.36 % points | Glucose24hAUC (total area under the glucose concentration curve during 24-hour period after four weeks treatment): 456 ± 38 mM·h
